The values below come from patent US7906508B2, “3,4-dihydrobenzoxazine compounds and inhibitors of vanilloid receptor subtype 1 (VRI) activity” (Japan Tobacco Inc., priority 2005, dated 2011).

The target of data set [1] is T1, human VR1 (Homo sapiens, UniProt Q8NER1).
T1 construct: expressed in transfected cells
As to the kind of experiment: Inhibition of Ca2+ entry in cells caused by proton (Test Example [1]). Conditions: for IC50: rat glioma (C6BU1) cells stably expressing human VR1, proton stimulation, pH 5.7, Ca2+ uptake, Fura 2-AM, read-out: VRI Inhibition IC50. Format: cell-based. As for the experimental part:
An inhibitory effect on VR1 activity was evaluated by measuring Ca^2+ uptake in cells.
Rat glioma (C6BU1) cells stably expressing human VR1 were suspended in 20 mM MES buffer (at pH 6.8, contg. 20 mM 2-morpholinoethanesulfonate (referred to as MES hereinafter), 115 mM NaCl, 5 mM KCl, 1 mM MgCl2 and 14 mM D-glucose) to make a cell density of 1×10^6 cells/mL. A fluorescent dye, Fura 2-AM solution (Dojindo Corporate, Cat. No. 343-05401) was added to the suspension to make a 5 μM concentration thereof. Further, Pluronic F-127 (Wako Pure Chemical Industries, Ltd., Cat. No. P6866) was added to make a 0.1% content thereof. Then, the suspension was incubated at 37° C. for 30 min. The cells were harvested and washed two times with 20 mM MES buffer. The cells were suspended again to make a cell density of 5×10^5 cells/mL. A 500-μL portion of the suspension was taken with a cuvette (MC MEDICAL, INC., Cat. No. SSR3121), to which 10 μL of 20 mM MES buffer containing 250 mM CaCl2 was added to incorporate Ca^2+ into the cells. At the same time, 5 μL of a test compound solution (in a range of 100 μM to 10 nM in DMSO) was also added to provide a final concentration thereof in a range of 1 μM to 0.1 nM. Alternatively, 5 μL of DMSO was added as control to provide a final concentration of 1% DMSO. The suspension was set in an intracellular ionometer (CAF-110; JASCO) 10 min after those additions. The cells were stimulated with protons by addition of 50 μL of 20 mM MES buffer at pH 1.1 to the suspension to set its pH at 5.7. The activity of the test compound was determined as a difference between the minimum of fluorescence intensity before agonist stimulation and its maximum after the stimulation. The value of IC50 was derived from percentage of inhibition by the test compound compared with the control.

A short description of data set [2]: Metabolic stability test in liver S9 (Test Example [2]). Format: in vitro ADME, human. Conditions: for Human liver S9 remaining ratio: human liver S9 2 mg protein/mL, 37° C., 60 minutes of incubation vs 0 minute. As to the method:
Human liver S9 (final concentration: 2 mg protein/mL) was suspended in 100 mM potassium phosphate buffer (at pH 7.4, which contained β-nicotinamide adenine dinucleotide phosphate: 1.3 mM, D-glucose-6-phosphate: 3.3 mM, magnesium chloride: 3.3 mM and glucose-6-phosphate dehydrogenase: 0.45 U/mL) and further mixed with the test compound dissolved in DMSO. The mixture was incubated at 37° C. for 0 and 60 minutes and then supplemented with acetonitrile containing formic acid (final concentration 0.1%). The test compound (uncharged) in a supernatant after centrifugation was measured using high-performance liquid chromatography/mass spectrometry (LC/MS). A remaining ratio (%) was calculated from the obtained measurement value according to the following equation: Remaining ratio (%)=(amount of test compound after 60 minutes of incubation/amount of test compound on 0 minute of incubation)×100

A short description of data set [3]: In-vitro membrane permeability test (Test Example [3]). Format: in vitro ADME. As to conditions: human, Caco-2, Caco2 cells, 2 hours. As to the method:
(§1) 10 mM DMSO solution of the test compound was diluted with Hanks buffer (pH 6.5) to 25 μM to make a test compound solution. 300 μL of Apical buffer (Hanks buffer (pH 6.5)) and 1 mL of Basolateral buffer (4.5% BSA-containing Hanks buffer (pH 7.4)) were added to the apical side (mucosal side) and the basolateral side (serosal side), respectively, of Caco2 cells (cells cultured for 6 days after seeding) seeded onto a plate for permeability test (BIOCOAT HTS Caco2 Assay system: BD Biosciences), and preincubated at 37° C. for 20 minutes, followed by measurement of a transepithelial electrical resistance value. Each buffer on the apical side and basolateral side was removed by aspiration. Then, 300 μL of the test compound solution and 1 mL of Basolateral buffer were added to the apical side and the basolateral side, respectively, and incubated at 37° C. for 2 hours with stirring at 60 rpm. Then, sampling was performed from each of the apical side and the basolateral side, and the sample was supplemented with acetonitrile and centrifuged. The test compound (uncharged) in the supernatant was measured using high-performance liquid chromatography/tandem mass spectrometry (LC/MS/MS: Quantum, Thermo Quest).
(§2) A membrane permeability coefficient (Papp) was calculated according to the following equation: Papp(cm/sec.)=(dx/dt)/(A×C0)
(§3) (wherein dx is the amount of the test compound (uncharged) on the basolateral side after incubation, dt is an incubation time, A is the surface area of the cell membrane, and C0 is the initial concentration of the test compound on the apical side.)
A general note: Caco-2 cells form a polarised layer with tight junctions and transporters.

The subject of data set [4] is Caco2 cells. The description is as above. Format: in vitro ADME. As to conditions: summary judgement. As for the experimental part:
as §1, §2, §3

A short description of data set [5]: Stability test in Japanese Pharmacopoeia 1 solution (Test Example [4]). Format: physicochemical. Conditions: for remaining ratio in Japanese Pharmacopoeia 1 solution: CH3CN : Japanese Pharmacopoeia 1 solution 3:7, 0.05 mM, 40° C., after 8 hours vs 0 hour. As for the experimental part:
The test compound was dissolved in a mixed solution of CH3CN and Japanese Pharmacopoeia 1 solution (volume ratio 3:7) and adjusted in a vial for HPLC to a concentration of 0.05 mM. The test compound was measured by HPLC at 40° C. after 0 and 8 hours. The measurement value on 0 hour was defined as 100% to determine the remaining ratio of the test compound after 8 hours.
The “Japanese Pharmacopoeia 1 solution” here represents a solution in which 21 ml of concentrated hydrochloric acid was added to 6 g of sodium chloride and further adjusted to 3 L with distilled water.

The mark [6] stands for this setting: apical (pH 6.5) to basolateral (pH 7.4, 4.5% BSA), 25 μM, 37° C., read-out: membrane permeability Papp.
The mark [7] stands for this setting: compared with the compound of Comparative Example 8.

Like-named read-outs stand apart in the source and are kept apart here.

T1 sequence (Q8NER1 whole entry): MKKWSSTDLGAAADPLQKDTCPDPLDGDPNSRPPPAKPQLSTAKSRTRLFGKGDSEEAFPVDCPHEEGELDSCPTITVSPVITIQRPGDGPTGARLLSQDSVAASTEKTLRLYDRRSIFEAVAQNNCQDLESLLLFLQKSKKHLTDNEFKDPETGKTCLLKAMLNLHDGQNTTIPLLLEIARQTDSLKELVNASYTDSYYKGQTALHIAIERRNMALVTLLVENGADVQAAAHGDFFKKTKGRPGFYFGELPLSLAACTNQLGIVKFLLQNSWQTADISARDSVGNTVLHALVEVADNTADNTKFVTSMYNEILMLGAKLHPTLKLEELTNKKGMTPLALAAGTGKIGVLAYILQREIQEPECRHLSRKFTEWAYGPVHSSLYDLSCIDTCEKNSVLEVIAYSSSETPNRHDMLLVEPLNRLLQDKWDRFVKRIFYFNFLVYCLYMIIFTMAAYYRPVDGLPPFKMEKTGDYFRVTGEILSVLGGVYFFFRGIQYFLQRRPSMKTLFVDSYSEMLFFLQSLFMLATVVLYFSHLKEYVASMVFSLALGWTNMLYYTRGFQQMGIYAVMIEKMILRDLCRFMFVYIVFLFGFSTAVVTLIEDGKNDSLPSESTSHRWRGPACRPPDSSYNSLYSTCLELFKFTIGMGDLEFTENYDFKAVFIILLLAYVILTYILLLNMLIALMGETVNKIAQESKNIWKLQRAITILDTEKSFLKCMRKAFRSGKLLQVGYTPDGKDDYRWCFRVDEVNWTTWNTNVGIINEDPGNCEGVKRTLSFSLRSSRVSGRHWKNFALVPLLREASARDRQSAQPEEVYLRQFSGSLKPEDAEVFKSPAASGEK

By IC50 is commonly meant the concentration needed to halve the response being measured. Regarding `Cc1ccc(N2c3cccc(C(=O)Nc4ccc(OC(C)C)c(F)c4)c3OC[C@@H]2CO)nc1` [Comparative Example 11], the IC50 in data set [1] turned out to be 360 pM. In addition, the “Human liver S9 remaining ratio” value in data set [2] was found to be 66.7%. The Papp A→B at 2 h, 25 μM in data set [3] (setting [6]) amounted to 40.3 ×10⁻⁶ cm/s. Besides, in data set [4], the “membrane permeability (in words)” value is “high membrane permeability”.
For the molecule `Cc1ccc(N2c3cccc(C(=O)Nc4ccc(OC(C)(C)C)c(F)c4)c3OC[C@@H]2CO)nc1` [Comparative Example 13], the IC50 in data set [1] turned out to be 120 pM. Further, the “Human liver S9 remaining ratio” value in data set [2] is recorded as 91.3%. Moreover, in data set [2] (summary judgement), the “metabolic stability in human liver S9 (in words)” value is listed as “excellent metabolic stability”. Besides, the Papp A→B at 2 h, 25 μM in data set [3] (setting [6]) stood at 28.6 ×10⁻⁶ cm/s. For the same molecule, the “remaining ratio in Japanese Pharmacopoeia 1 solution” value in data set [5] was found to be 62.1%. The “stability in gastric juice (in words)” value in data set [5] (inferred from stability in Japanese Pharmacopoeia 1 solution) is recorded as “inferior stability in gastric juice”.
Consider `Cc1ccc(N2c3cccc(C(=O)Nc4ccc(C(F)(F)F)nc4)c3OC[C@@H]2CO)nc1` [Comparative Example 8], for which, in data set [1], the IC50 came out at 7000 pM. Besides, in data set [2], the “Human liver S9 remaining ratio” value is reported as 62.9%. Also, in data set [3] (setting [6]), the Papp A→B at 2 h, 25 μM came out at 43.1 ×10⁻⁶ cm/s. In addition, in data set [4], the “membrane permeability (in words)” value is “high membrane permeability”.
`Cc1ccc(N2c3cccc(C(=O)Nc4ccc(OCC(F)(F)F)nc4)c3OC[C@@H]2CO)nc1` [Example 1-6, (S)-4-(5-picoline-2-yl)-3-hydroxymethyl-N-[2-(2,2,2-trifluoroethyloxy)pyridine-5-yl]-3,4-dihydro-2H-benzo[1,4]oxazine-8-carboxamide]: the “value of IC50 relative to Comparative Example 8” value in data set [1] (setting [7]) is “about 50 times”. Moreover, the IC50 in data set [1] was found to be 150 pM. Further, the “liver S9 remaining ratio relative to Comparative Example 8” value in data set [2] (setting [7]) is on record as “about 1.5 times”. In addition, the Papp A→B at 2 h, 25 μM in data set [3] (setting [6]) is 37.5 ×10⁻⁶ cm/s; in data set [3] (apical to basolateral, read-out: membrane permeability in terms of the Papp values) it was no less than 30 ×10⁻⁶ cm/s. Besides, the “remaining ratio in Japanese Pharmacopoeia 1 solution” value in data set [5] was 100%.
For `Cc1ccc(N2c3cccc(C(=O)Nc4ccc(OC(F)(F)F)cc4)c3OC[C@@H]2CO)nc1` [Comparative Example 6], the IC50 in data set [1] is 300 pM. For the same molecule, in data set [2], the “Human liver S9 remaining ratio” value was 77.3%. Further, the Papp A→B at 2 h, 25 μM in data set [3] (setting [6]) came to 21.1 ×10⁻⁶ cm/s.
For `Cc1ccc(N2c3cccc(C(=O)Nc4cc(F)c(OCC(F)(F)F)c(F)c4)c3OC[C@@H]2CO)nc1` [Example 1-8, (S)-4-(5-picoline-2-yl)-3-hydroxymethyl-N-[3,5-difluoro-4-(2,2,2-trifluoroethoxy)phenyl]-3,4-dihydro-2H-benzo[1,4]oxazine-8-carboxamide], the IC50 in data set [1] worked out at 38 pM. For the same molecule, the Papp A→B at 2 h, 25 μM in data set [3] (setting [6]) stood at 13.6 ×10⁻⁶ cm/s. Further, in data set [5], the “remaining ratio in Japanese Pharmacopoeia 1 solution” value was found to be 101%.
